Source: PubChem BioAssay (NCI)
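These data come from cells grown in 96-well plates and exposed to compound for 48 hours at five concentrations. Here, GI50 denotes the concentration required for 50% inhibition of growth. TGI is the concentration that stops growth completely.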

Tests used:
Test in all cases: DTP human tumour cell line panel, 48 h
786-0 renal = tested on: 786-0 renal
A498 renal = tested on: A498 renal
A549 NSCLC = tested on: A549 NSCLC
ACHN renal = tested on: ACHN renal
BT-549 breast = tested on: BT-549 breast
CAKI-1 renal = tested on: CAKI-1 renal
CCRF-CEM leukemia = tested on: CCRF-CEM leukemia
COLO 205 colon = tested on: COLO 205 colon
DU-145 prostate = tested on: DU-145 prostate
EKVX NSCLC = tested on: EKVX NSCLC
HCC-2998 colon = tested on: HCC-2998 colon
HCT-116 colon = tested on: HCT-116 colon
HCT-15 colon = tested on: HCT-15 colon
HL-60(TB) leukemia = tested on: HL-60(TB) leukemia
HOP-62 NSCLC = tested on: HOP-62 NSCLC
HOP-92 NSCLC = tested on: HOP-92 NSCLC
HS 578T breast = tested on: HS 578T breast
HT29 colon = tested on: HT29 colon
IGROV1 ovarian = tested on: IGROV1 ovarian
K-562 leukemia = tested on: K-562 leukemia
KM12 colon = tested on: KM12 colon
M14 melanoma = tested on: M14 melanoma
MALME-3M melanoma = tested on: MALME-3M melanoma
MCF7 breast = tested on: MCF7 breast
MDA-MB-231 breast = tested on: MDA-MB-231 breast
MDA-MB-435 = tested on: MDA-MB-435
MOLT-4 leukemia = tested on: MOLT-4 leukemia
NCI-H226 lung = tested on: NCI-H226 lung
NCI-H23 lung = tested on: NCI-H23 lung
NCI-H460 lung = tested on: NCI-H460 lung
NCI-H522 lung = tested on: NCI-H522 lung
NCI/ADR-RES ovarian = tested on: NCI/ADR-RES ovarian
OVCAR-4 ovarian = tested on: OVCAR-4 ovarian
OVCAR-5 ovarian = tested on: OVCAR-5 ovarian
OVCAR-8 ovarian = tested on: OVCAR-8 ovarian
PC-3 prostate = tested on: PC-3 prostate
RPMI-8226 leukemia = tested on: RPMI-8226 leukemia
RXF 393 renal = tested on: RXF 393 renal
SF-268 CNS = tested on: SF-268 CNS
SF-295 CNS = tested on: SF-295 CNS
SF-539 CNS = tested on: SF-539 CNS
SK-MEL-2 melanoma = tested on: SK-MEL-2 melanoma
SK-MEL-28 melanoma = tested on: SK-MEL-28 melanoma
SK-MEL-5 melanoma = tested on: SK-MEL-5 melanoma
SK-OV-3 ovarian = tested on: SK-OV-3 ovarian
SN12C renal = tested on: SN12C renal
SNB-19 CNS = tested on: SNB-19 CNS
SNB-75 CNS = tested on: SNB-75 CNS
SR leukemia = tested on: SR leukemia
SW-620 colon = tested on: SW-620 colon
T-47D breast = tested on: T-47D breast
TK-10 renal = tested on: TK-10 renal
U251 CNS = tested on: U251 CNS
UACC-257 melanoma = tested on: UACC-257 melanoma
UACC-62 melanoma = tested on: UACC-62 melanoma
UO-31 renal = tested on: UO-31 renal

Work on Cn1ccnc1C(=O)/C=C/C=C/c1ccc(C(=O)Nc2ccc(F)cc2)cc1 yielded a GI50 (786-0 renal) of 778 nM, a TGI (786-0 renal) of 1880 nM and a GI50 (A498 renal) of 2600 nM. It also gave a TGI (A498 renal) of 26.9 µM, a GI50 (A549 NSCLC) of 5.36 µM and a TGI (A549 NSCLC) of over 33.3 µM. It also gave a GI50 (ACHN renal) of 1150 nM, a TGI (ACHN renal) of 5.54 µM and a GI50 (BT-549 breast) of 1320 nM. The TGI (BT-549 breast) was 15.1 µM, the GI50 (CAKI-1 renal) was 3.22 µM and the TGI (CAKI-1 renal) was over 33.3 µM. It also gave a GI50 (CCRF-CEM leukemia) of 731 nM, a TGI (CCRF-CEM leukemia) of over 33.3 µM and a GI50 (COLO 205 colon) of 5.61 µM. The TGI (COLO 205 colon) was over 33.3 µM, the GI50 (DU-145 prostate) was 1520 nM and the TGI (DU-145 prostate) was over 33.3 µM. The GI50 (EKVX NSCLC) was 1260 nM, the TGI (EKVX NSCLC) was 12.1 µM and the GI50 (HCC-2998 colon) was 2610 nM. The TGI (HCC-2998 colon) was 8.77 µM, the GI50 (HCT-116 colon) was 666 nM and the TGI (HCT-116 colon) was 1570 nM. It also gave a GI50 (HCT-15 colon) of 568 nM, a TGI (HCT-15 colon) of 1250 nM and a GI50 (HL-60(TB) leukemia) of 956 nM. The TGI (HL-60(TB) leukemia) was 7.2 µM, the GI50 (HOP-62 NSCLC) was 8.47 µM and the TGI (HOP-62 NSCLC) was over 33.3 µM. The GI50 (HOP-92 NSCLC) was 3.14 µM, the TGI (HOP-92 NSCLC) was 20.5 µM and the GI50 (HS 578T breast) was 2270 nM. The TGI (HS 578T breast) was over 33.3 µM, the GI50 (HT29 colon) was 890 nM and the TGI (HT29 colon) was 2490 nM. The GI50 (IGROV1 ovarian) was 846 nM, the TGI (IGROV1 ovarian) was 2610 nM and the GI50 (K-562 leukemia) was 828 nM. For the same compound, the TGI (K-562 leukemia) was over 33.3 µM, the GI50 (KM12 colon) was 6.79 µM and the TGI (KM12 colon) was over 33.3 µM. It also gave a GI50 (M14 melanoma) of 1930 nM, a TGI (M14 melanoma) of 28.7 µM and a GI50 (MALME-3M melanoma) of 1290 nM. For the same compound, the TGI (MALME-3M melanoma) was 6.58 µM, the GI50 (MCF7 breast) was 917 nM and the TGI (MCF7 breast) was over 33.3 µM. It also gave a GI50 (MDA-MB-231 breast) of 1410 nM, a TGI (MDA-MB-231 breast) of over 33.3 µM and a GI50 (MDA-MB-435) of 1070 nM. For the same compound, the TGI (MDA-MB-435) was 4.45 µM, the GI50 (MOLT-4 leukemia) was 1020 nM and the TGI (MOLT-4 leukemia) was over 33.3 µM. For the same compound, the GI50 (NCI-H226 lung) was 2180 nM, the TGI (NCI-H226 lung) was 12.8 µM and the GI50 (NCI-H23 lung) was 1040 nM. The TGI (NCI-H23 lung) was 4.46 µM, the GI50 (NCI-H460 lung) was 1940 nM and the TGI (NCI-H460 lung) was 10.6 µM. It also gave a GI50 (NCI-H522 lung) of 1640 nM, a TGI (NCI-H522 lung) of 16.8 µM and a GI50 (NCI/ADR-RES ovarian) of 2020 nM. The TGI (NCI/ADR-RES ovarian) was over 33.3 µM, the GI50 (OVCAR-4 ovarian) was 6.06 µM and the TGI (OVCAR-4 ovarian) was over 33.3 µM. It also gave a GI50 (OVCAR-5 ovarian) of 1730 nM, a TGI (OVCAR-5 ovarian) of 16.8 µM and a GI50 (OVCAR-8 ovarian) of 1200 nM. The TGI (OVCAR-8 ovarian) was over 33.3 µM, the GI50 (PC-3 prostate) was 1260 nM and the TGI (PC-3 prostate) was over 33.3 µM. The GI50 (RPMI-8226 leukemia) was 699 nM, the TGI (RPMI-8226 leukemia) was 2270 nM and the GI50 (RXF 393 renal) was 711 nM. It also gave a TGI (RXF 393 renal) of 1920 nM, a GI50 (SF-268 CNS) of 1540 nM and a TGI (SF-268 CNS) of over 33.3 µM. For the same compound, the GI50 (SF-295 CNS) was 9.49 µM, the TGI (SF-295 CNS) was over 33.3 µM and the GI50 (SF-539 CNS) was 858 nM. It also gave a TGI (SF-539 CNS) of 2440 nM, a GI50 (SK-MEL-2 melanoma) of 17.9 µM and a TGI (SK-MEL-2 melanoma) of over 33.3 µM. It also gave a GI50 (SK-MEL-28 melanoma) of 2410 nM, a TGI (SK-MEL-28 melanoma) of over 33.3 µM and a GI50 (SK-MEL-5 melanoma) of 2650 nM. For the same compound, the TGI (SK-MEL-5 melanoma) was 12 µM, the GI50 (SK-OV-3 ovarian) was 11 µM and the TGI (SK-OV-3 ovarian) was over 33.3 µM. It also gave a GI50 (SN12C renal) of 1540 nM, a TGI (SN12C renal) of 14.2 µM and a GI50 (SNB-19 CNS) of 2050 nM. For the same compound, the TGI (SNB-19 CNS) was over 33.3 µM, the GI50 (SNB-75 CNS) was 1180 nM and the TGI (SNB-75 CNS) was 29.3 µM. It also gave a GI50 (SR leukemia) of 468 nM, a TGI (SR leukemia) of over 33.3 µM and a GI50 (SW-620 colon) of 796 nM. It also gave a TGI (SW-620 colon) of 2040 nM, a GI50 (T-47D breast) of 2010 nM and a TGI (T-47D breast) of over 33.3 µM. For the same compound, the GI50 (TK-10 renal) was 27.7 µM, the TGI (TK-10 renal) was over 33.3 µM and the GI50 (U251 CNS) was 911 nM. It also gave a TGI (U251 CNS) of 8.2 µM, a GI50 (UACC-257 melanoma) of 14.1 µM and a TGI (UACC-257 melanoma) of over 33.3 µM. The GI50 (UACC-62 melanoma) was 3.48 µM, the TGI (UACC-62 melanoma) was 15.4 µM and the GI50 (UO-31 renal) was 1420 nM. For the same compound, the TGI (UO-31 renal) was 7.16 µM.
